Data set [1] has as its target T1, Aldo-keto reductase family 1 member C1 (Homo sapiens, UniProt Q04828).
T1 sequence (Q04828 whole entry): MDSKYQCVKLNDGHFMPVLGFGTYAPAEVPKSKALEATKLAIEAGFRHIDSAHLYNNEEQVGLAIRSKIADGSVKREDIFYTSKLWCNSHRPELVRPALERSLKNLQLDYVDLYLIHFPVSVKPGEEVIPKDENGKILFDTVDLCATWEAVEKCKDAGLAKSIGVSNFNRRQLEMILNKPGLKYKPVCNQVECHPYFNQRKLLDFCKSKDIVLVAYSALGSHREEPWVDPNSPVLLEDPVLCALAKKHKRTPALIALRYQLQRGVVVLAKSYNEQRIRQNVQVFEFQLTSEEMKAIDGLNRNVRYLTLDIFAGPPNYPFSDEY
The data set can be described thus: Inhibition of 20-alpha HSD.

For data set [2], the target named is T2, Aldo-keto reductase family 1 member C3 (Homo sapiens, UniProt P42330).
T2 sequence (P42330 whole entry): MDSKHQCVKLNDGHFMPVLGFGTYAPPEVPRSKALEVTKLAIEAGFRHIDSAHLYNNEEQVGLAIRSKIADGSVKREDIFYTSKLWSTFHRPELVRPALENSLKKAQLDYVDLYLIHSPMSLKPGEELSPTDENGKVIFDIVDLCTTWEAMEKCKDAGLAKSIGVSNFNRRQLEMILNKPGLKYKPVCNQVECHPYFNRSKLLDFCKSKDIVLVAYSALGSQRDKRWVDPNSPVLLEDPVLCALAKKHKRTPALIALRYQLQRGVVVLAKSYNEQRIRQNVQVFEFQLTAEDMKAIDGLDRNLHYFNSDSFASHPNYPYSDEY
The data set can be described thus: Inhibition of human recombinant type 2 3-alpha-HSD expressed in Escherichia coli JM109.

The target of data set [3] is T3, Aldo-keto reductase family 1 member C4 (Homo sapiens, UniProt P17516).
T3 sequence (P17516 whole entry): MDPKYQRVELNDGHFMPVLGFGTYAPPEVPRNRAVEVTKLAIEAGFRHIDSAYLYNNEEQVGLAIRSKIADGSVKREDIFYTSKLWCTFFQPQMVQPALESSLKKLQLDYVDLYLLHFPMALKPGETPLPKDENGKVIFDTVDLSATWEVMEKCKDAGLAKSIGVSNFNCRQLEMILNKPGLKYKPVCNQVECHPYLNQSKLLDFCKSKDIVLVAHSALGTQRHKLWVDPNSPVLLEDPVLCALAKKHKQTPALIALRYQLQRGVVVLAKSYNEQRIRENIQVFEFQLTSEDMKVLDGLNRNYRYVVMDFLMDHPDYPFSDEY
The data set can be described thus: Inhibition of human recombinant type 1 3-alpha-HSD expressed in Escherichia coli JM109.

The nature of data set [4]: Cytotoxicity against BAEC assessed as cell viability at 10 uM. The format is cell-based, Bos taurus. The note with it: cattle.
The target in data set [5] is T4, Aldo-keto reductase family 1 member C1 (Homo sapiens) (UniProt Q04828).
T4 sequence (whole entry): T1 sequence (Q04828 whole entry)
As to conditions: 10 uM; call rule not given here.

The target of data set [6] is T1, Aldo-keto reductase family 1 member C1.
Description: Inhibition of human recombinant 20-alpha HSD expressed in Escherichia coli JM109

In the case of `CCc1oc2ccccc2c1C(=O)c1cc(Br)c(O)c(Br)c1` [BENZBROMARONE], the IC50 (as a rule, the point on the concentration scale where inhibition reaches its midpoint) in data set [1] was determined as 0.048 µM.

`O=C1OC(c2cc(Br)c(O)c(Br)c2)(c2cc(Br)c(O)c(Br)c2)c2ccccc21`: in data set [1], the midpoint of inhibition, the IC50, lay at 0.033 µM.

Regarding `O=C(O)c1cc(Br)cc(Br)c1O`, the Ki (as a rule, the equilibrium dissociation constant of an inhibitor or competing ligand from its target) was 23 µM in data set [2] and 45.7 µM in data set [3] (read-out: Ki). In data set [4], the Activity result was “Non-toxic”.

For `O=C(O)c1cc(Br)cc(-c2ccccc2)c1O`, the inhibition – broadly, the percentage by which the read-out fell short of the control – in data set [5] was found to be 40%. In addition, the Ki in data set [6] was 0.14 µM; in data set [2] it was 21 µM; in data set [3], “Not Active”. Moreover, the Activity result in data set [4] is “Non-toxic”.

As for `O=C(O)c1cc(-c2ccccc2)cc(Br)c1O`, the results for the Ki in data set [2] and in data set [3] (read-out: Ki) were 4.2 µM and 18.2 µM, respectively. For the same compound, the Activity entry in data set [4] is “Non-toxic”.

The record behind these values is ChEMBL document CHEMBL1138501, “Structure-guided design, synthesis, and evaluation of salicylic acid-based inhibitors targeting a selectivity pocket in the active site of human 20alpha-hydroxysteroid dehydrogenase (AKR1C1)” (J Med Chem, 2009).
